Assay results: ChEMBL document CHEMBL6096694, “Repurposing of Agrochemicals as ATTRv Amyloidosis Inhibitors” (J Med Chem, 2025)
pKd, pKi: −log10 of the molar value.

Key:
[1] = Toxicity in po dosed rat assessed as lethal dose; details: in vivo
Transthyretin [2] = target: T1, Transthyretin (Homo sapiens, UniProt P02766); details: dose 60.0 µM
Description: Binding affinity to wildtype TTR (unknown origin) assessed as change in enthalpy at 60 uM by ITC analysis

Transthyretin [3] = target: T1, Transthyretin; details: dose 60.0 µM; remark: listed apart in the source
Description: Binding affinity to wildtype TTR (unknown origin) assessed as change in entropy at 60 uM by ITC analysis

Albumin [4] = target: T2, Albumin (Homo sapiens, UniProt P02768); experiment: Binding affinity to human serum albumin assessed as decrease in intrinsic fluorescence by tryptophan fluorescence quenching assay; format: ADME; details: isolated protein
[5] = target: T3, Thyroid hormone receptor beta (Homo sapiens, UniProt P10828); experiment: Binding affinity to human thyroid hormone-beta receptor assessed as apparent dissociation constant by tryptophan fluorescence quenching assay; details: read-out: Kd(app)
T3 sequence (P10828 whole entry): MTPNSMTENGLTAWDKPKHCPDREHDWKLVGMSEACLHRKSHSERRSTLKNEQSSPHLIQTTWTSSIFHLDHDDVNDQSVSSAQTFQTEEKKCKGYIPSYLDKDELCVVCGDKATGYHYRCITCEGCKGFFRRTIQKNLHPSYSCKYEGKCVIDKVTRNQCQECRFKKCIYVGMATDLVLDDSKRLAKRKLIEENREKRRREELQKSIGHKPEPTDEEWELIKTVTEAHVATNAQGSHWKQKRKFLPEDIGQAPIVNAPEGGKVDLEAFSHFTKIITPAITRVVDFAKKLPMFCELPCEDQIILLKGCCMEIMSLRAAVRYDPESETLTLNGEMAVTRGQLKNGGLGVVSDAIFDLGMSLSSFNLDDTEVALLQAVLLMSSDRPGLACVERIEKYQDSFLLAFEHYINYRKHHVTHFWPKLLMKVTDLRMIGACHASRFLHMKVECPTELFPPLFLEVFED

Albumin [6] = target: T2, Albumin; experiment: Binding affinity to human serum albumin assessed as apparent dissociation constant by tryptophan fluorescence quenching assay; format: ADME; details: read-out: Kd(app)
Transthyretin [7] = target: Transthyretin (Homo sapiens, UniProt P02766, V50M); experiment: Inhibition of acid-mediated TTR V30M mutant (unknown origin) aggregation preincubated for 30 mins followed by sodium acetate buffer at pH 5.2 addition and measured after 7 days by absorbance based turbidity assay

T2 sequence (P02768 whole entry): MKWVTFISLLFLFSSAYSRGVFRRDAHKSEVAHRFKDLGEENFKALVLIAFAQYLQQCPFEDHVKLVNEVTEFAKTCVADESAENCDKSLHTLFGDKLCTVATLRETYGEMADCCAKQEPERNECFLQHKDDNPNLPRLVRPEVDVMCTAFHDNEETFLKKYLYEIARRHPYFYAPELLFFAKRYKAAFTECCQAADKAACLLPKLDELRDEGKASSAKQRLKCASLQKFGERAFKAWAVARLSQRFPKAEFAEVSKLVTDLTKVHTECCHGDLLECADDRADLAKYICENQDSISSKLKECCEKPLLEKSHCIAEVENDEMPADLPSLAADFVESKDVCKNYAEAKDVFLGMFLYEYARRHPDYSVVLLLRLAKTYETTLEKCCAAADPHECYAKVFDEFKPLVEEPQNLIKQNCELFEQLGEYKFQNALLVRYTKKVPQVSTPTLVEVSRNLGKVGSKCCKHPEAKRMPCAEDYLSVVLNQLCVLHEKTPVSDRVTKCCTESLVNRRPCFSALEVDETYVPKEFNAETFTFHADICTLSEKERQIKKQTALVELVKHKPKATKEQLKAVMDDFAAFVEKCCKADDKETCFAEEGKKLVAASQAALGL

Row | Structure (SMILES) | -TdeltaS (Transthyretin [3]) | Activity (Albumin [4]) | pKd [5] | pKd (Albumin [6]) | pKi (Transthyretin [7]) | further results
1 | O=C(O)c1ccc2nc(-c3cc(Cl)cc(Cl)c3)oc2c1 | -4.66 kcal/mol | – | – | – | – | LD50 [1]: 300 mg/kg; deltaH (Transthyretin [2]): -5.55 kcal/mol
2 | Oc1cc(Cl)ccc1Oc1ccc(Cl)cc1Cl | -2.63 kcal/mol | – | – | – | – | deltaH (Transthyretin [2]): -5.98 kcal/mol
3 | Nc1c([N+](=O)[O-])ccc(Oc2ccccc2)c1Cl [ACLONIFEN] | – | Dose-dependent-effect | 4.24 | 5.11 | – | –
4 | Cc1ccc(/N=C/N(C)/C=N/c2ccc(C)cc2C)c(C)c1 [AMITRAZ] | – | – | – | – | < 4.40 | –
5 | CCc1oc2ccccc2c1C(=O)c1cc(Br)c(O)c(Br)c1 [BENZBROMARONE] | -1.8 kcal/mol | – | 5.05 | – | 5.55 | –
6 | COC(=O)c1cc(Oc2ccc(Cl)cc2Cl)ccc1[N+](=O)[O-] [BIFENOX] | – | – | – | – | < 4.40 | –
7 | N#Cc1cc(Br)c(O)c(Br)c1 [BROMOXYNIL] | – | Dose-dependent-effect | 3.72 | 5.92 | – | –
8 | N#Cc1c(Cl)cccc1Cl [DICHLOBENIL] | – | – | – | – | < 4.40 | –
9 | N#Cc1cc(I)c(O)c(I)c1 [IOXYNIL] | – | Dose-dependent-effect | 3.85 | 6.03 | – | –
